According to ChEMBL document CHEMBL5236561, “Rugonidines A-F, Diastereomeric 1,6-Dioxa-7,9-diazaspiro[4.5]dec-7-en-8-amines from the Leaves of Alchornea rugosa” (J Nat Prod, 2021):
Calls of active or inactive are those of the source.

Legend:
Format in all cases: functional, cell-based
3T3-L1 [1] = assay: Induction of glucose uptake in mouse 3T3-L1 cells assessed as stimulation of in 2-NBDG uptake by measuring fluorescence intensity at 20 uM incubated for 1 hr in glucose free media hr by fluorescence microscopic analysis
3T3-L1 [2] = assay: Induction of glucose uptake in mouse 3T3-L1 cells assessed as stimulation of in 2-NBDG uptake by measuring fluorescence intensity at 5 to 20 uM incubated for 1 hr in glucose free media hr by fluorescence microscopic analysis; settings: dose 5-20 µM
3T3-L1 [3] = assay: Induction of glucose uptake in mouse 3T3-L1 cells assessed as stimulation of in 2-NBDG uptake by measuring fluorescence intensity incubated for 1 hr in glucose free media hr by fluorescence microscopic analysis; settings: dose 5-20 µM

Measured: Activity

C[C@@H]1O[C@@H](O[C@H]2Cc3c(O)cc4c(c3O[C@@H]2c2ccc(O)c(O)c2)C(C)(C)[C@@]2(CNC(N)=NO2)O4)[C@H](O)[C@H](O)[C@H]1O
active: 3T3-L1 [1] | 3T3-L1 [2] | 3T3-L1 [3] Dose-Dependent Effect

CC(C)=CCNC1=NO[C@]2(CN1)Oc1cc(O)c3c(c1C2(C)C)O[C@H](c1ccc(O)c(O)c1)[C@@H](O[C@@H]1O[C@@H](C)[C@H](O)[C@@H](O)[C@H]1O)C3
active: 3T3-L1 [1] | 3T3-L1 [2] | 3T3-L1 [3] Dose-Dependent Effect

CC(C)=CCNC1=NO[C@@]2(CN1)Oc1cc(O)c3c(c1C2(C)C)O[C@H](c1ccc(O)c(O)c1)[C@@H](O[C@@H]1O[C@@H](C)[C@H](O)[C@@H](O)[C@H]1O)C3
active: 3T3-L1 [1] | 3T3-L1 [2] | 3T3-L1 [3] Dose-Dependent Effect
